# Reference: ChEMBL document CHEMBL1201862, “PubChem BioAssay data set” (2004)
# Calls of active or inactive are those of the source.
# What was measured:
# [1] = molecular target: Glyceraldehyde-3-phosphate dehydrogenase (Homo sapiens, UniProt P04406)
# [2] = molecular target: T1, Alkaline phosphatase, tissue-nonspecific isozyme (Homo sapiens, UniProt P05186); assay: potency against alkaline phosphatase TNAP – biochemical, luminescent, dose response, SAR follow-up (AID 1056)
# T1 sequence (P05186 whole entry): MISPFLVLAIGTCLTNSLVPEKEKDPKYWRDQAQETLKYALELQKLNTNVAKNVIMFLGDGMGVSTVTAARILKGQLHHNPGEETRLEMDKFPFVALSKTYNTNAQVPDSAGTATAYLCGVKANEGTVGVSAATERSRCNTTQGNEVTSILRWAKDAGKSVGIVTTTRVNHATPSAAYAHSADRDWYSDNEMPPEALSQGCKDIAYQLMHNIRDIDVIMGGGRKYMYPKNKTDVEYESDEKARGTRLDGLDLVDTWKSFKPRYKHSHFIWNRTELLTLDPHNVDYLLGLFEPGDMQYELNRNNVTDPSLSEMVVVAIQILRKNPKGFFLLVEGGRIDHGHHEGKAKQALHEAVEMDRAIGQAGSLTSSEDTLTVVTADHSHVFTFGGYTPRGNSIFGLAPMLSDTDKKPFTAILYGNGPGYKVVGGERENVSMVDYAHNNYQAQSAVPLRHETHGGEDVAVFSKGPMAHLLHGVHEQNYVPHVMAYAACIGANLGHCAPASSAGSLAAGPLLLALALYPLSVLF
# Vero = assay: host cell viability loss, Vero E6 – synthesized analogs, cytotoxicity control for West Nile virus antiviral project, SAR follow-up (AID 2244); format: functional; settings: Chlorocebus sabaeus
# [3] = HepG2 cell cytotoxicity, dose response, cytotoxicity control for non-replicating M. tuberculosis project (AID 489018); format: functional; settings: Mycobacterium tuberculosis
# [4] = non-specific 3'UTR reporter inhibition in Clone20-Shn3RL – cell-based, Renilla luciferase, cherry-picked, counter-screen for Shn3 inhibitor project, dose response (AID 624133); format: functional
# [5] = THP-1 cell cytotoxicity, dose response, cytotoxicity control for non-replicating M. tuberculosis project (AID 489025); format: functional
# [6] = Luminescence Cell-Based Dose Retest to Confirm Inhibitors of Cancer Stem Cells. [Related pubchem assays (depositor defined):AID2717, AID2721]; format: functional; settings: Homo sapiens
# [7] = reduction of Shn3 3'UTR-driven luciferase in osteoblasts – cell-based, Clone20 osteoblasts, firefly luciferase, cherry-picked, dose response (AID 624132); format: functional;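 note: firefly luciferase luminescence from reporter carrying the Shn3 3'UTR in osteoblasts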
# [8] = NIH3T3 cell viability loss – ATP luminescence, mouse fibroblasts, counter-screen, dose response (AID 2010); format: functional, cell-based;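 note: cells exposed to compound for about 90 hours before reading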
# A-375 = assay: MITF: Counter assay: A375 proliferation Measured in Cell-Based System Using Plate Reader - 2084-03_Inhibitor_Dose_DryPowder_Activity. [Related pubchem assays (depositor defined):AID488944]; format: functional; settings: Homo sapiens
# [9] = viability loss in HeLa cells – cytotoxicity control for MgcRacGAP inhibitor project, dose response (AID 624300); format: functional
# [10] = molecular target: T2, Microphthalmia-associated transcription factor (Homo sapiens, UniProt O75030); assay: reducers of TRPM1 reporter luminescence, concentration series – cell-based, SK-MEL-5, cherry-picked, set 3, MITF inhibitor project, dose response (AID 493073); format: functional;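 note: SK-MEL-5 melanoma cells with luciferase driven by the MITF target TRPM1 promoter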
# T2 sequence (O75030 whole entry): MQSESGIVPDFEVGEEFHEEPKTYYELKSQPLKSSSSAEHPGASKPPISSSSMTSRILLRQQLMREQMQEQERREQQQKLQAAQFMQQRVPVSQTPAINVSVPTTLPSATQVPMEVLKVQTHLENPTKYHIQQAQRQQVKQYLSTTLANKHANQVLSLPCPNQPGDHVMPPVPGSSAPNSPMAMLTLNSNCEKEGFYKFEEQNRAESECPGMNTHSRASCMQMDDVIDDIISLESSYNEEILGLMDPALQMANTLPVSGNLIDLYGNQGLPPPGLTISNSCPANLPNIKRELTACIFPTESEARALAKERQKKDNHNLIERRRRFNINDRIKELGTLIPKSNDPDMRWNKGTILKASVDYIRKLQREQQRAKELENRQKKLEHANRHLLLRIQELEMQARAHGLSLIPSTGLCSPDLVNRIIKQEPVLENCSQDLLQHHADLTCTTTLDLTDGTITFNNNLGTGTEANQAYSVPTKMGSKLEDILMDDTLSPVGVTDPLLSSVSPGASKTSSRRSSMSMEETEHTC
# [11] = Trypanosoma cruzi growth suppression in host cells – NIH3T3 host cells, beta-gal luminescence, confirmation (AID 2044); format: functional, cell-based;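 note: intracellular parasites grown in NIH/3T3 mouse fibroblasts as host cells; luminescent beta-galactosidase reporter signal from transgenic T. cruzi replicating inside host cells; inhibitors lower the luminescence signal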
# INS1 = assay: INS-1E survival protection against cytokine death – cell-based, luminescence, retest, dose response (AID 449756); format: functional; settings: Rattus norvegicus;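 note: cell death triggered by IL-1 beta plus TNF-alpha plus IFN-gamma mixture; protective hits raise ATP signal compared with cytokine alone wells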
# [12] = Vero E6 cell cytotoxicity, dose response, cytotoxicity control for non-replicating M. tuberculosis project, secondary assay (AID 492998); format: functional, VeroE6; settings: Vero C1008
# cells = format: functional
# [13] = loss of viability in HepG2 cells – cell-based, CellTiter-Glo, cherry-picked, cytotoxicity control for Shn3 inhibitor project, dose response (AID 624134); format: functional
# Cytochrome P450 2C19 = Cytochrome P450 2C19 (Homo sapiens, UniProt P33261); assay: Cytochrome panel assay with activity outcomes. Panel member name: p450-cyp2c19 Compounds with AC50 equal or less than 10 uM are considered active; format: functional; settings: read-out: AC50
# Cytochrome P450 2D6 = Cytochrome P450 2D6 (Homo sapiens, UniProt P10635);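 note: CYP2D6 member of a cytochrome P450 panel assay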
# Escherichia coli = assay: microbe, parasite or virus in culture
# [14] = HEK-293T cell viability reduction – luminescence, B-cell screen hits, cytotoxicity control for BCR NF-kB inhibitor project, dose response (AID 489021); format: functional, cell-based;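 note: HEK-293T cells carrying an NF-kB luciferase reporter; cells exposed to compound for about 14 hours before viability readout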
# HEK293 [15] = assay: cells; settings: Homo sapiens
# [16] = molecular target: Voltage-dependent T-type calcium channel subunit alpha-1H (Homo sapiens, UniProt O95180); format: functional;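 note: channel activity triggered by adding a high calcium stimulation buffer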
# HEK293 [17] = assay: cells; settings: Homo sapiens; remark: listed apart in the source
# Glyceraldehyde-3-phosphate dehydrogenase, sequence (P04406 whole entry): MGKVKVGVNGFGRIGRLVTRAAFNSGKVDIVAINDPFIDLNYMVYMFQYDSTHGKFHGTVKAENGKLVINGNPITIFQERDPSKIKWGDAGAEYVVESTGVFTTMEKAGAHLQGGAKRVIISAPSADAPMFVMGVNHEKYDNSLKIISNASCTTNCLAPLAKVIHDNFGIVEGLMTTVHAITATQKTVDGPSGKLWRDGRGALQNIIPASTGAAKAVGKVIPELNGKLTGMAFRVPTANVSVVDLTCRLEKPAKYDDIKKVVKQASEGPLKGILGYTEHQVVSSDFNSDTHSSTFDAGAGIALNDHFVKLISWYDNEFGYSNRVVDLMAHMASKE
# Voltage-dependent T-type calcium channel subunit alpha-1H, sequence (O95180 whole entry): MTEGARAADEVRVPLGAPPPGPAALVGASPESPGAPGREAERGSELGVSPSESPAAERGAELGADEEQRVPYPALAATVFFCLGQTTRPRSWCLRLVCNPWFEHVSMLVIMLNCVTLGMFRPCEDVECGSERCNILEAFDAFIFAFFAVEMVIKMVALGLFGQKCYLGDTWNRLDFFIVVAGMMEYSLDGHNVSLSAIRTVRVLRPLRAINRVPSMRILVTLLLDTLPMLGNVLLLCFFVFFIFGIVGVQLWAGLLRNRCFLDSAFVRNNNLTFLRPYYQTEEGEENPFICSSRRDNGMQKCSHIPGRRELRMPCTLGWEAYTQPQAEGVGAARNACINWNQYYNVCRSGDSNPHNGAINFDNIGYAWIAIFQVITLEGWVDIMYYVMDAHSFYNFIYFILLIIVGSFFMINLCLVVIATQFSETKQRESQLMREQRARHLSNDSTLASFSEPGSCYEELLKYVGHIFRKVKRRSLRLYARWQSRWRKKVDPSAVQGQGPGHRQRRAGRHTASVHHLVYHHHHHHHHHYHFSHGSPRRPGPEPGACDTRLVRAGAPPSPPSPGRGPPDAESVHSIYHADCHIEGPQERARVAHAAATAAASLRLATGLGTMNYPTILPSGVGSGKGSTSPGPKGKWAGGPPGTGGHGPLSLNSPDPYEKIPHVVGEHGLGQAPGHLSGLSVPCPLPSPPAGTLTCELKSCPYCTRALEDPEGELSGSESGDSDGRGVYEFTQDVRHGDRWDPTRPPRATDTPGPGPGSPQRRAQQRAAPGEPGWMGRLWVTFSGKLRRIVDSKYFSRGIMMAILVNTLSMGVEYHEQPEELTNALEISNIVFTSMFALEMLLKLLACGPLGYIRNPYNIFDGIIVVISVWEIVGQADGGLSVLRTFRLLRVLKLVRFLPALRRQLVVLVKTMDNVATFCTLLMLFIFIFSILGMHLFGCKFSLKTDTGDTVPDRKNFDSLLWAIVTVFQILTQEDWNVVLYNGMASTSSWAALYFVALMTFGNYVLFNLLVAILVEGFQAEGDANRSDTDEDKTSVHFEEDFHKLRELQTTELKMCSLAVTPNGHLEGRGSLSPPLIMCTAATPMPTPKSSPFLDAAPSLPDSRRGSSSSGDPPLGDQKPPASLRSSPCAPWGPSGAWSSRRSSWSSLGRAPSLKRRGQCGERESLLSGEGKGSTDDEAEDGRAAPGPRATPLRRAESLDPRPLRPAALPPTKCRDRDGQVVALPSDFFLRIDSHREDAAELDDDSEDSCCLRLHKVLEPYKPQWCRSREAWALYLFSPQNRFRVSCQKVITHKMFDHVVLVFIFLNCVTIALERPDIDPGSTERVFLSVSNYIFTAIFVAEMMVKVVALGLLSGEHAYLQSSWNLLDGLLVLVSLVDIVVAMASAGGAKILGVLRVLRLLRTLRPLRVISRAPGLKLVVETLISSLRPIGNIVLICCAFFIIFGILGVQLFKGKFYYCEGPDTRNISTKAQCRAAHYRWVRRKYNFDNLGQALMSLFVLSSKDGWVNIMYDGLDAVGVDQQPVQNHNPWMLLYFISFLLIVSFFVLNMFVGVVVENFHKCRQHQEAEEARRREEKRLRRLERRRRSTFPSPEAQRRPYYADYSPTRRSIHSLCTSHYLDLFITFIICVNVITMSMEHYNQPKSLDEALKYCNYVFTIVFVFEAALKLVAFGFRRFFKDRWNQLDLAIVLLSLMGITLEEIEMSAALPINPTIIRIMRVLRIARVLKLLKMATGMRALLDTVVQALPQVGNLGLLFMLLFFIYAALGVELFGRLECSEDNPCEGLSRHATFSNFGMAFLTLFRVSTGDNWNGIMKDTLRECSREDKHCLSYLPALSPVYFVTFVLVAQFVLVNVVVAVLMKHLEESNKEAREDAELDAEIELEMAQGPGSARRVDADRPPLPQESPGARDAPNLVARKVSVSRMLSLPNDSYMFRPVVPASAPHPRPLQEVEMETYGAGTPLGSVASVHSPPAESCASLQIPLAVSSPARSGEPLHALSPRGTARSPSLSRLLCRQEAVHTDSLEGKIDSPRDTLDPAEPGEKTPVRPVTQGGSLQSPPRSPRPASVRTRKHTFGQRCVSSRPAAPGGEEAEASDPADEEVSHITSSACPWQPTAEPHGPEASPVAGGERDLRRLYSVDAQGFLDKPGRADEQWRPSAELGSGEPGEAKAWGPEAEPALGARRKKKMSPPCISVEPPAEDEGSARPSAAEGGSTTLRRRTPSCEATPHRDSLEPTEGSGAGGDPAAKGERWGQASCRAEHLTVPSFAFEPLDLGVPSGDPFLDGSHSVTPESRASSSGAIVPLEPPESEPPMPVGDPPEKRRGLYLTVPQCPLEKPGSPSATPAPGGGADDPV
# Cytochrome P450 2D6, sequence (P10635 whole entry): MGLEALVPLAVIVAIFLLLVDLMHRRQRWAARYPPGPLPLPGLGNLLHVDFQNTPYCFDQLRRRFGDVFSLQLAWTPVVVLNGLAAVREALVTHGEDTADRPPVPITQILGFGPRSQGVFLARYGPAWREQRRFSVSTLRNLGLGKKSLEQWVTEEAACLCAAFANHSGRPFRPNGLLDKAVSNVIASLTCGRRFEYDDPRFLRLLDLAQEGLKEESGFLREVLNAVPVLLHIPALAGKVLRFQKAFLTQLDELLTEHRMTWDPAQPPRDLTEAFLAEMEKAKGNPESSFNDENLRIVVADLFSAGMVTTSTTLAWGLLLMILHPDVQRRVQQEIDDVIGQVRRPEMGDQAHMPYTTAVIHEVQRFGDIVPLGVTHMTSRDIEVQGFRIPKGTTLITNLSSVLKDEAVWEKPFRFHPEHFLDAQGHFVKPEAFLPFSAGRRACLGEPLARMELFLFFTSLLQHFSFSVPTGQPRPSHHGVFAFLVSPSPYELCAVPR
# Cytochrome P450 2C19, sequence (P33261 whole entry): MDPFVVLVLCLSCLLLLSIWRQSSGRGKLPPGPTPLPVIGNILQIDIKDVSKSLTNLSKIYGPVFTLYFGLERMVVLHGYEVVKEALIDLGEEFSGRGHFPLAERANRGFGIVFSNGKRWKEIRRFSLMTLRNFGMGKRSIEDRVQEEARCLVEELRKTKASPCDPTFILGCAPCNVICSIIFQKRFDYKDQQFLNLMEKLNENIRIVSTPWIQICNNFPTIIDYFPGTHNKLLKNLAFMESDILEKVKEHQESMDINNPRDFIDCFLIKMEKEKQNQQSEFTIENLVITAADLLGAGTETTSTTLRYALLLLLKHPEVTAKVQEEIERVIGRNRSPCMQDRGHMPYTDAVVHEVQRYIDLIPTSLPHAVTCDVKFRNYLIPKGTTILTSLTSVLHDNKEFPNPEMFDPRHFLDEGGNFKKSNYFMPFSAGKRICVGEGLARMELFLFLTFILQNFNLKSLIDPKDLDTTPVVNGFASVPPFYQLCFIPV
smiles,measurement,setting,value
O=C(O)c1cc(-c2ccccc2O)n[nH]1,IC50,[1],> 100 µM (not active)
same,IC50,[2],> 100 µM (inactive)
COc1ccc(-c2csc(NC(=O)c3cccc(Cl)c3)n2)cc1,CC50,Vero,> 40 µM (active)
Cc1ccn2c(Nc3ccccc3)c(-c3ccccn3)nc2c1,CC50,[3],> 20 µM (active)
same,AC50,[4],3.25 µM (active)
same,CC50,[5],6.44 µM (active)
same,AC50,[6],4.95 µM (active)
same,AC50,[7],2.31 µM (active)
same,EC50,[8],2.91 µM (active)
same,AC50,A-375,38.1 µM (active)
same,CC50,[9],50 µM (active)
same,AC50,[10],9.31 µM (active)
same,EC50,[11],1.16 µM (active)
same,AC50,INS1,5.31 µM (active)
same,CC50,[12],4.64 µM (active)
same,IC50,cells,3.88 µM (active)
same,AC50,[13],7.07 µM (active)
Cc1ccc(S(=O)(=O)Nc2cnc3ccccc3c2)c(C)c1C,IC50,[1],> 100 µM (not active)
same,IC50,[2],> 100 µM (inactive)
CCCNC(=O)c1cc2c(C(F)(F)F)nn(C)c2s1,AC50,Cytochrome P450 2C19,31.6 µM (inconclusive)
same,AC50,Cytochrome P450 2D6,inconclusive
COc1ccc(N2C(=O)C3C4C=CC(C4)C3C2=O)nn1 (stereo not drawn),AC50,Escherichia coli,26.5 µM (active)
O=C(NCCCN1CCOCC1)c1cc(-c2ccc(Br)cc2)on1,IC50,[14],> 80 µM (inactive)
CCC(C)(C)n1nnnc1C(c1ccc(C)cc1)N(Cc1ccco1)Cc1cccs1 (stereo not drawn),EC50,HEK293 [15],> 59.6 µM (inactive)
same,EC50,[16],6.74 µM (active)
same,EC50,HEK293 [17],> 59.6 µM (inactive)
same,EC50,[8],> 60 µM (not active)
same,EC50,[11],2.86 µM (active)
